Measurements published in US20130184294A1, “Pyrimidones for Treatment of Potassium Channel Related Diseases” (Pfizer Inc., priority 2010, published 2013).

Biological target: T1, Kv7.2/7.3 channels (Homo sapiens, UniProt O43525+O43526)
T1 construct: The entire construct for Kv7.2 and Kv7.3 was subcloned into the pIRESneo3 and pIREShygro3 expression vectors; expressed in transfected cells
Test: Kv7.2/3 channel opening activity, IonWorks planar patch-clamp of K-current at 0 mV
Type: cell-based
Conditions: CHO-K1 cells expressing human Kv7.2/7.3; IonWorks Quattro, step from -80 mV to 0 mV, 7-point concentration curves
Source text: Biological Assay for Kv7.2/3 Channel Opening Activity
Human Kv7.2 and Kv7.3 clones were obtained from GeneDynamics (Eugene, Oreg.). Both human Kv7.2/pIRESneo3 and human Kv7.3/pIREShygro3 expression vectors were constructed using a combination of fragments amplified from a human hippocampus library (extending from a NheI site near the 5′ end through the stop codon) and synthetic oligonucleotides (extending from the start codon to the BamHI site). The entire construct for Kv7.2 and Kv7.3 was subcloned into the pIRESneo3 and pIREShygro3 expression vectors (Clonetech, Mountain View, Calif.), respectively, using NheI/BamHI sites introduced on either side of the start and stop codons. The construct was sequenced in its entirety to make sure that no mutations were introduced during the amplification and cloning process. Adapted from Wickendon, A D et al., Mol Pharmacol 58(3):591-600, 2000.
Chinese hamster ovary (CHO-K1) cells were transfected with human-Kv7.2 in a pIRESneo3 plasmid DNA vector (Clonetech, Mountain View, Calif.) and the h-Kv7.3 subunit in pIREShygro3 plasmid DNA vector using Lipofectamine-2000™ reagent (InVitrogen, San Diego, Calif.), according to the manufacturers instructions. Cells stably expressing the human Kv7.2 and Kv7.3 constructs were identified by their resistance to 400 ug/ml, geneticin (Gibco #10131-027) and 400 ug/ml, hygromycin-B (Invitrogen #10687-010). Clones were screened for functional expression using the whole-cell, voltage-clamp technique.
To determine if compounds can enhance voltage-dependent K-current in Kv7.2/7.3 channel containing CHO-K1 cells. Planar patch-clamp is used on IonWorks to functionally determine percent enhancement of Kv7.2/7.3-current at 0 mV (compared to retigabine) and potency (EC50) of compounds. Intrinsic activity and/or potency may be important in determining in vivo pharmacological efficacy of the compounds.
Serial dilutions were made in DMSO on an Apricot Personal Pipettor. Compounds were then diluted in external buffer on a 384 well assay plate (final DMSO concentration=0.3%).
Cells used in this assay were CHO-K1 expressing Kv7.2/7.3 channels. Cells were maintained in growth media containing: F-12 (Gibco #11765-054), 10% FBS (Invitrogen 16140-071), 1:100 Glutamax (Gibco #35050-061), 1:100 Penicillin/streptomycin (Gibco #15140-122), 400 ug/ml Geneticin (Gibco #10131-027), 400 ug/ml Hygromycin-B (Invitrogen #10687-010). Cells were grown in T-150 flasks to a confluence of approx. 80%. External recording buffer contained (in mM): NaCl (137), KCl (4), MgCl2 (1), CaCl2 (1.8), HEPES (10), and glucose (10), pH was adjusted to 7.3 with NaOH and osmolarity was adjusted to 300-305 mOsM with sucrose, if necessary. Internal buffer contained (in mM): Kgluconate (120), KCl (20), NaCl (5), MgCl2 (1), CaCl2 (2), HEPES (10), KF (2), and Na2ATP (2). Na2ATP was added to internal buffer right before use and pH was adjusted to 7.2 with KOH. Osmolarity of internal buffer was adjusted to 290-295 mOsM.
Cells were washed 1× with Ca/Mg free PBS and then removed from the plates with a 50:50 mixture of versene (Gibco 15040): 0.25% trypsin-EDTA (Gibco 25200) (4 min), triturated, centrifuged at ˜1000 rpm for 5 min, and resuspended at ˜2.5 million cells/ml in external buffer for recording on IonWorks. Potassium current measurements were made using an IonWorks Quattro instrument (MDS Corp.) using PatchPlate PPC substrates with 64 apertures per well. IonWorks calculated leak current was digitally subtracted from the total current acquired. Potassium current was elicited by stepping from −80 mV to 0 mV (2 sec) was measured in the absence and presence of increasing concentrations (½ log) of unknown compound (7-point concentration curves). Retigabine was run as a positive control and comparator on each PatchPlate PPC. Maximum increase in K current was determined by subtracting the current elicited in external buffer alone wells from the current elicited in wells with compound treatment (both at 0 mV). […]

SMILES	EC50 [nM]
CC[C@@H](C)Nc1nc2c(C)cccn2c(=O)c1NC(=O)CC(C)(C)C [Example 1, N-{2-[(2R)-Butan-2-ylamino]-9-methyl-4-oxo-4H-pyrido[1,2-a]pyrimidin-3-yl}-3,3-dimethylbutanamide]	168
Cc1cccn2c(=O)c(NC(=O)CC(C)(C)C)c(NC(C)C)nc12 [Example 3, 3,3-Dimethyl-N-[9-methyl-4-oxo-2-(propan-2-ylamino)-4H-pyrido[1,2-a]pyrimidin-3-yl]butanamide]	450
CC(C)(C)CC(=O)Nc1c(C2CC2)nc2c(C(F)(F)F)cccn2c1=O [Example 4, N-[2-Cyclopropyl-4-oxo-9-(trifluoromethyl)-4H-pyrido[1,2-a]pyrimidin-3-yl]-3,3-dimethylbutanamide]	137
CC(C)(C)CC(=O)Nc1c(NC2CCC2)nc2c(C(F)(F)F)cccn2c1=O [Example 6, N-[2-(Cyclobutylamino)-4-oxo-9-(trifluoromethyl)-4H-pyrido[1,2-a]pyrimidin-3-yl]-3,3-dimethylbutanamide]	91.5
CC(C)Nc1nc2c(C(F)(F)F)cccn2c(=O)c1NC(=O)CC(C)(C)C [Example 7, 3,3-Dimethyl-N-[4-oxo-2-(propan-2-ylamino)-9-(trifluoromethyl)-4H-pyrido[1,2-a]pyrimidin-3-yl]butanamide]	119
CC(C)Nc1nc2c(OC(C)(F)F)cccn2c(=O)c1NC(=O)CC(C)(C)C [Example 9, N-[9-(1,1-Difluoroethoxy)-4-oxo-2-(propan-2-ylamino)-4H-pyrido[1,2-a]pyrimidin-3-yl]-3,3-dimethylbutanamide]	369
CC(C)(C)CC(=O)Nc1c(C2CC2)nc2c(OC(C)(F)F)cccn2c1=O [Example 10, N-[2-Cyclopropyl-9-(1,1-difluoroethoxy)-4-oxo-4H-pyrido[1,2-a]pyrimidin-3-yl]-3,3-dimethylbutanamide]	306

Now from value to compound:

EC50 [nM]	SMILES
227	Cc1cccn2c(=O)c(NC(=O)CC(C)(C)C)c(NC(C)C3CC3)nc12 (single isomer, unassigned) [Example 2a, N-{2-[(1-Cyclopropylethyl)amino]-9-methyl-4-oxo-4H-pyrido[1,2-a]pyrimidin-3-yl}-3,3-dimethylbutanamide, (+)-enantiomer]
128	Cc1cccn2c(=O)c(NC(=O)CC(C)(C)C)c(NC(C)C3CC3)nc12 (single isomer, unassigned) [Example 2b, N-{2-[(1-Cyclopropylethyl)amino]-9-methyl-4-oxo-4H-pyrido[1,2-a]pyrimidin-3-yl}-3,3-dimethylbutanamide, (−)-enantiomer]
1240	CC(C)(C)CC(=O)Nc1c(C2CC2)nc2n(c1=O)CCCC2C(F)(F)F (single isomer, unassigned) [Example 5a, N-[2-Cyclopropyl-4-oxo-9-(trifluoromethyl)-6,7,8,9-tetrahydro-4H-pyrido[1,2-a]pyrimidin-3-yl]-3,3-dimethylbutanamide, (−)-enantiomer]
298	CC(C)(C)CC(=O)Nc1c(C2CC2)nc2n(c1=O)CCCC2C(F)(F)F (single isomer, unassigned) [Example 5b, N-[2-Cyclopropyl-4-oxo-9-(trifluoromethyl)-6,7,8,9-tetrahydro-4H-pyrido[1,2-a]pyrimidin-3-yl]-3,3-dimethylbutanamide, (+)-enantiomer]
382	CC(C)Nc1nc2n(c(=O)c1NC(=O)CC(C)(C)C)CCCC2C(F)(F)F (single isomer, unassigned) [Example 8a, 3,3-Dimethyl-N-[4-oxo-2-(propan-2-ylamino)-9-(trifluoromethyl)-6,7,8,9-tetrahydro-4H-pyrido[1,2-a]pyrimidin-3-yl]butanamide, (−) enantiomer]
412	CC(C)Nc1nc2n(c(=O)c1NC(=O)CC(C)(C)C)CCCC2C(F)(F)F (single isomer, unassigned) [Example 8b, 3,3-Dimethyl-N-[4-oxo-2-(propan-2-ylamino)-9-(trifluoromethyl)-6,7,8,9-tetrahydro-4H-pyrido[1,2-a]pyrimidin-3-yl]butanamide, (+) enantiomer]
307	CC[C@@H](C)Nc1nc2n(c(=O)c1NC(=O)CC(C)(C)C)CCCC2C (single isomer, unassigned; diastereomer 1) [Example 11a]
942	CC[C@@H](C)Nc1nc2n(c(=O)c1NC(=O)CC(C)(C)C)CCCC2C (single isomer, unassigned; diastereomer 2) [Example 11b]
